The experiment deals with HCV pseudoparticles (genotype 1a HCV E1 and E2 envelope, H77C isolate). In words: microbe, parasite or virus in culture. The format is cell-based. To be noted: Hepatitis C virus.
The mark [1] stands for this setting: Huh-7, 48 h, read-out: Activity (EC50 class), HCV pseudoparticle infection of Huh7 cells, luciferase 2 days after infection, EC50 expressed as class A/B.
Setting [2] is: Huh-7, read-out: Activity (EC50 class), HCV pseudoparticles (genotype 1a, H77C) in Huh7 cells, EC50 expressed as class A/B.
Where [3] appears, read: Huh-7, 48 h, read-out: Activity (EC50 class), HCV pseudoparticles, Huh7 cells, luciferase 2 days after infection, average of duplicates.
Setting [4] is: Huh-7, 48 h, HCV pseudoparticles (genotype 1a, H77C) in Huh7 cells, average of duplicate, luciferase 2 days after infection.

pEC50: −log10 of the molar value. Like-named read-outs stand apart in the source and are kept apart here.

In the case of `O=C(NCC[C@H](NC(=O)c1ccc(Nc2nc(NC3(c4ccc(Cl)cc4)CC3)nc(OCC(F)(F)F)n2)cc1)C(=O)O)C(=O)NC1C[C@H]2CC[C@@H]1C2` (stereo partly drawn) [Compound 1120], under setting [1], the pEC50 was 8.00 to 11.00.

`CC(C)(CNC(=O)C(=O)Nc1ccc(-c2ccccc2)cc1)CNC(=O)c1ccc(Nc2nc(NC3(c4ccc(Cl)cc4)CC3)nc(OCC(F)(F)F)n2)cc1` [Compound 1590]: the pEC50 under setting [1] is 8.00 to 11.00.

On to `C[C@@H](NC(=O)C(=O)NCC[C@H](NC(=O)c1ccc(Nc2nc(NC3(c4ccc(Cl)cc4)CC3)nc(OCC(F)(F)F)n2)cc1)C(=O)O)C1CC1` [Compound 1420], for which the pEC50 under setting [1] was 8.00 to 11.00.

`CC(C)(CNC(=O)C(N)=O)CNC(=O)c1ccc(Nc2nc(NC3(c4ccc(Cl)cc4)CC3)nc(OCC(F)(F)F)n2)cc1-c1ccccc1` [Compound 3511]: under setting [2], the negative logarithm of the EC50 (pEC50) was 8.00 to 11.00.

Take `CCC1(CC)CC1CNC(=O)C(=O)NC[C@H](NC(=O)c1ccc(Nc2nc(NC3(c4ccc(Cl)cc4)CC3)nc(OCC(F)(F)F)n2)cc1)C(=O)O` (stereo partly drawn) [Compound 1471]: the negative-log EC50 (pEC50) under setting [1] was 8.00 to 11.00.

On to `COc1ccc(C2(Nc3nc(Nc4ccc(C(=O)NCC(C)(C)CNC(=O)C(N)=O)cc4)nc(OCC(F)(F)F)n3)CC2)cc1C(F)(F)F` [Compound 3351], for which, under setting [2], the pEC50 was 8.00 to 11.00.

`COC(=O)/C(CCNC(=O)C(=O)Nc1ccc(-n2nc(C)cc2C)cc1)=N\C(=O)c1ccc(Nc2nc(NC3(c4ccc(Cl)cc4)CC3)nc(OCC(F)(F)F)n2)cc1` [Compound 3137]: the pEC50 under setting [2] is 8.00 to 11.00.

In the case of `O=C(NC/C(=N/C(=O)c1ccc(Nc2nc(NC3(c4ccc(Cl)cc4)CC3)nc(OCC(F)(F)F)n2)cc1)C(=O)O)C(=O)Nc1ccc(C(=O)c2ccccc2)cc1` [Compound 3152], the pEC50 under setting [2] was 8.00 to 11.00.

`O=C(NC[C@H](NC(=O)c1ccc(Nc2nc(NC3(c4ccc(Cl)cc4)CC3)nc(OCC(F)(F)F)n2)cc1)C(=O)O)C(=O)Nc1cccc(CCc2ccccn2)c1` [Compound 3769]: the pEC50 under setting [3] is 8.00 to 11.00.

Consider `CCC1CCC(NC(=O)C(=O)NCC[C@H](NC(=O)c2ccc(Nc3nc(NC4(c5ccc(Cl)cc5)CC4)nc(OCC(F)(F)F)n3)cc2)C(=O)O)CC1` (stereo partly drawn) [Compound 1121], for which the pEC50 under setting [1] is 8.00 to 11.00.

Take `O=C(NCC[C@H](NC(=O)c1ccc(Nc2nc(NC3(c4ccc(Cl)cc4)CC3)nc(OCC(F)(F)F)n2)cc1)C(=O)O)C(=O)NCC1CCCCC1` [Compound 1181]: the negative logarithm of the EC50 (pEC50) under setting [1] is 8.00 to 11.00.

`COC(=O)[C@@H](CCNC(=O)C(=O)NCC1(NC(=O)OC(C)(C)C)CC1)NC(=O)c1ccc(Nc2nc(NC3(c4ccc(Cl)cc4)CC3)nc(OCC(F)(F)F)n2)cc1` [Compound 1381]: under setting [1], the pEC50 is 8.00 to 11.00.

Turning to `COC(=O)/C(CCNC(=O)C(=O)Nc1ccc(-n2cccn2)cc1)=N\C(=O)c1ccc(Nc2nc(NC3(c4ccc(Cl)cc4)CC3)nc(OCC(F)(F)F)n2)cc1` [Compound 3136], under setting [2], the pEC50 was 8.00 to 11.00.

Turning to `COC(=O)[C@H](CCNC(=O)C(=O)Nc1ccc(Cc2ccccc2)cc1)NC(=O)c1ccc(Nc2nc(NC3(c4ccc(Cl)cc4)CC3)nc(OCC(F)(F)F)n2)cc1` [Compound 3120], the pEC50 under setting [2] was 8.00 to 11.00.

For the compound `CC(C)(CNC(=O)C(N)=O)CNC(=O)c1ccc(Nc2nc(NC3(c4ccccc4F)CC3)nc(OCC(F)(F)F)n2)cc1` [Compound 3243], under setting [2], the pEC50 is 8.00 to 11.00.

For `COC(=O)[C@H](CCNC(=O)C(=O)NCc1cc(F)ccc1F)NC(=O)c1ccc(Nc2nc(NC3(c4ccc(Cl)cc4)CC3)nc(OCC(F)(F)F)n2)cc1` [Compound 1157], the pEC50 under setting [1] was 8.00 to 11.00.

Take `O=C(NCC[C@@H](NC(=O)c1ccc(Nc2nc(NC3(c4ccc(Cl)cc4)CC3)nc(OCC(F)(F)F)n2)cc1)C(=O)O)C(=O)Nc1ccccc1Cl` [Compound 1534]: the pEC50 under setting [1] is 8.00 to 11.00.

With `Cc1ccc(CNC(=O)C(=O)NCC[C@H](NC(=O)c2ccc(Nc3nc(NC4(c5ccc(Cl)cc5)CC4)nc(OCC(F)(F)F)n3)cc2)C(=O)O)c(F)c1` [Compound 1188], under setting [1], the pEC50 is 8.00 to 11.00.

Consider `CC(C)(CNC(=O)C(=O)Nc1nncs1)CNC(=O)c1ccc(Nc2nc(NC3(c4ccc(Cl)cc4)CC3)nc(OCC(F)(F)F)n2)cc1` [Compound 3382], for which the pEC50 under setting [2] was 8.00 to 11.00.

With `CN(C)c1ccc(NC(=O)C(=O)NCC(C)(C)CNC(=O)c2ccc(Nc3nc(NC4(c5ccc(Cl)cc5)CC4)nc(OCC(F)(F)F)n3)cc2)cc1` [Compound 1602], under setting [1], the pEC50 was 8.00 to 11.00.

As for `COC(=O)[C@H](CCNC(=O)C(=O)Nc1cccc(-c2noc(C)n2)c1)NC(=O)c1ccc(Nc2nc(NC3(c4ccc(Cl)cc4)CC3)nc(OCC(F)(F)F)n2)cc1` [Compound 3606], the pEC50 under setting [3] is 8.00 to 11.00.

With `CC(=O)N1CCN(c2ccc(NC(=O)C(=O)NCCC(NC(=O)c3ccc(Nc4nc(NC5(c6ccc(Cl)cc6)CC5)nc(OCC(F)(F)F)n4)cc3)C(=O)O)cc2)CC1` (stereo not drawn) [Compound 3524], the pEC50 under setting [2] is 8.00 to 11.00.

For `O=C(NCCc1ccccc1)C(=O)NC[C@H](NC(=O)c1ccc(Nc2nc(NC3(c4ccc(Cl)cc4)CC3)nc(OCC(F)(F)F)n2)cc1)C(=O)O` [Compound 1396], the pEC50 under setting [1] was 8.00 to 11.00.

`COC(=O)[C@H](CNC(=O)C(=O)Nc1ccc(C(N)=O)cc1)NC(=O)c1ccc(Nc2nc(NC3(c4ccc(Cl)cc4)CC3)nc(OCC(F)(F)F)n2)cc1` [Compound 3088]: the pEC50 under setting [2] is 8.00 to 11.00.

Take `CC(C)OC(=O)c1cccc(-c2ccc(NC(=O)C(=O)NCC(C)(C)CNC(=O)c3ccc(Nc4nc(NC5(c6ccc(Cl)cc6)CC5)nc(OCC(F)(F)F)n4)cc3)cc2)c1` [Compound 1491]: the pEC50 under setting [1] was 8.00 to 11.00.

For the compound `COC(=O)[C@H](CNC(=O)C(=O)Nc1ccc(Cl)cc1)NC(=O)c1ccc(Nc2nc(NC3(c4ccc(Cl)cc4)CC3)nc(OCC(F)(F)F)n2)cc1` [Compound 3081], the pEC50 under setting [2] is 8.00 to 11.00.

With `COC(=O)[C@@H](CCNC(=O)C(=O)Nc1ccc(Cl)nc1)NC(=O)c1ccc(Nc2nc(NC3(c4ccc(Cl)cc4)CC3)nc(OCC(F)(F)F)n2)cc1` [Compound 3570], the pEC50 under setting [2] was 8.00 to 11.00.

For `COC(=O)[C@H](CNC(=O)C(=O)Nc1cccc(-c2ccnc(C)n2)c1)NC(=O)c1ccc(Nc2nc(NC3(c4ccc(Cl)cc4)CC3)nc(OCC(F)(F)F)n2)cc1` [Compound 3700], the pEC50 under setting [3] is 8.00 to 11.00.

On to `COC(=O)[C@H](CNC(=O)C(=O)Nc1ccc(N2CCOCC2)cc1)NC(=O)c1ccc(Nc2nc(NC3(c4ccc(Cl)cc4)CC3)nc(OCC(F)(F)F)n2)cc1` [Compound 3080], for which the negative logarithm of the EC50 (pEC50) under setting [2] was 8.00 to 11.00.

As to `O=C(NCC[C@H](NC(=O)c1ccc(Nc2nc(NC3(c4ccc(Cl)cc4)CC3)nc(OCC(F)(F)F)n2)cc1)C(=O)O)C(=O)Nc1cccc(CCc2ccccn2)c1` [Compound 3638], the pEC50 under setting [3] is 8.00 to 11.00.

Regarding `COc1cccc(NC(=O)C(=O)NCC(C)(C)CNC(=O)c2ccc(Nc3nc(NC4(c5ccc(Cl)cc5)CC4)nc(OCC(F)(F)F)n3)cc2)c1` [Compound 3008], the pEC50 under setting [2] was 8.00 to 11.00.

As for `COc1ccc(NC(=O)C(=O)NCC(C)(C)CNC(=O)c2ccc(Nc3nc(NC4(c5ccc(Cl)cc5)CC4)nc(OCC(F)(F)F)n3)cc2)c(OC)n1` [Compound 3077], the pEC50 under setting [2] was 8.00 to 11.00.

Take `Cc1cc(NC(=O)C(=O)NCC(C)(C)CNC(=O)c2ccc(Nc3nc(NC4(c5ccc(Cl)cc5)CC4)nc(OCC(F)(F)F)n3)cc2)sn1` [Compound 3010]: the pEC50 under setting [4] was 10.85 and the pEC50 under setting [2] is 8.00 to 11.00.

As for `O=C(NCC[C@H](NC(=O)c1ccc(Nc2nc(NC3(c4ccc(Cl)cc4)CC3)nc(OCC(F)(F)F)n2)cc1)C(=O)O)C(=O)Nc1ccc(-n2cnc(Cl)c2Cl)cc1` [Compound 3225], the pEC50 is 7.77 under setting [4] and 6.00 to 8.00 under setting [2].

On to `O=C(NCCC(NC(=O)c1ccc(Nc2nc(NC3(c4ccc(Cl)cc4)CC3)nc(OCC(F)(F)F)n2)cc1)C(=O)O)C(=O)Nc1ccc(-c2cc[nH]n2)cc1` (stereo not drawn) [Compound 3531], for which the negative logarithm of the EC50 (pEC50) under setting [2] is 8.00 to 11.00.

In the case of `CNC(=O)C(=O)NCC(NC(=O)c1ccc(Nc2nc(NC3(c4ccc(Cl)cc4)CC3)nc(OCC(F)(F)F)n2)cc1)C(=O)O` (stereo in doubt) [Compound 1006, (S)-2-(4-(4-(1-(4-chlorophenyl)cyclopropylamino)-6-(2,2,2-trifluoroethoxy)-1,3,5-triazin-2-ylamino)benzamido)-3-(2-(methylamino)-2-oxoacetamido)propanoic acid], the pEC50 is 9.16 (Huh-7, 48 h, HCV pseudoparticle infection of Huh7 cells, luciferase 2 days after infection, average of duplicates) and 8.00 to 11.00 under setting [1].

As for `COC(=O)[C@H](CCNC(=O)C(=O)Nc1cc(F)cc(F)c1)NC(=O)c1ccc(Nc2nc(NC3(c4ccc(Cl)cc4)CC3)nc(OCC(F)(F)F)n2)cc1` [Compound 1506], the pEC50 under setting [1] is 8.00 to 11.00.

With `COC(=O)C(CNC(=O)C(=O)NC1CCCC(NC(=O)OC(C)(C)C)C1)NC(=O)c1ccc(Nc2nc(NC3(c4ccc(Cl)cc4)CC3)nc(OCC(F)(F)F)n2)cc1` (stereo not drawn) [Compound 1053], the pEC50 under setting [1] is 8.00 to 11.00.

For `COC(=O)[C@H](CCNC(=O)C(=O)Nc1ccc(Oc2ccccc2)cc1)NC(=O)c1ccc(Nc2nc(NC3(c4ccc(Cl)cc4)CC3)nc(OCC(F)(F)F)n2)cc1` [Compound 3113], the pEC50 is, setting by setting: under setting [4], 8.11; under setting [2], 8.00 to 11.00.

With `COC(=O)/C(CCNC(=O)C(=O)Nc1ccc(-n2nnnc2C)cc1)=N\C(=O)c1ccc(Nc2nc(NC3(c4ccc(Cl)cc4)CC3)nc(OCC(F)(F)F)n2)cc1` [Compound 3135], the pEC50 is, setting by setting: under setting [4], 8.43; under setting [2], 8.00 to 11.00.

Turning to `CC(=O)Nc1ccc(NC(=O)C(=O)NC[C@H](NC(=O)c2ccc(Nc3nc(NC4(c5ccc(Cl)cc5)CC4)nc(OCC(F)(F)F)n3)cc2)C(=O)O)cn1` [Compound 3762], the pEC50 under setting [3] was 8.00 to 11.00.

In the case of `O=C(Nc1ccccc1)C(=O)N1CCCC(CNC(=O)c2ccc(Nc3nc(NC4(c5ccc(Cl)cc5)CC4)nc(OCC(F)(F)F)n3)cc2)C1` (stereo not drawn) [Compound 3488], under setting [2], the negative-log EC50 (pEC50) was 8.00 to 11.00.

As to `COC(=O)[C@H](CCNC(=O)C(=O)Nc1ccnc(OC)c1)NC(=O)c1ccc(Nc2nc(NC3(c4ccc(Cl)cc4)CC3)nc(OCC(F)(F)F)n2)cc1` [Compound 1217], the pEC50 under setting [1] is 8.00 to 11.00.

By pEC50 is commonly meant the negative decadic logarithm of the EC50, by convention in mol/L.

These data come from US8916702B2 (priority 2012, dated 2014).
